These are literature values, as cited in patent US20090214648A1 (priority 2008, published 2009).

Molecules are shown by their SMILES. Bounds are passed on as bounds.

The test system of series [1] is enzyme cyclooxygenase.
The conditions of series [2]: in vivo.

For `CC(C)Cc1ccc(C(C)C(=O)O)cc1` (stereo not shown) [Ibuprofen, 2-[4-(2-methylpropyl)phenyl]propanoic acid], the Inhibition of cyclooxygenase entry in series [1] is on record as “potent inhibitor”. Further, in series [2], the “Dose excreted in the urine” value is on record as “more than 90%”, the Dose excreted unchanged result is reported as “Less than 10%” and the “Time until excretion is essentially complete” value is not above 24 h.
